Measurements: ChEMBL document CHEMBL1156687, “Design and microwave-assisted synthesis of 5-trifluoromethyl-4,5-dihydro-1H-pyrazoles: novel agents with analgesic and anti-inflammatory properties” (Eur J Med Chem, 2008)
Active and inactive are the calls of the source. The calls are words filed in the database; no cut-off is given here.

Experiments:
Mus musculus [1] = test: Analgesic activity against formalin-induced inflammatory pain in albino mouse assessed as time spent on paw licking at 1000 umol/kg, sc administered 20 mins before formalin challenge assessed for 30 mins at 5 mins intervals; type: functional
Mus musculus [2] = test: Analgesic activity against formalin-induced neurogenic pain in albino mouse assessed as time spent on paw licking at 1000 umol/kg, sc administered 20 mins before formalin challenge assessed for 30 mins at 5 mins intervals; type: functional
Mus musculus [3] = test: Analgesic activity against formalin-induced neurogenic pain in albino mouse assessed as time spent on paw licking at 750 umol/kg, sc administered 20 mins before formalin challenge assessed for 30 mins at 5 mins intervals; type: functional
Mus musculus [4] = test: Analgesic activity against formalin-induced inflammatory pain in albino mouse assessed as time spent on paw licking at 750 umol/kg, sc administered 20 mins before formalin challenge assessed for 30 mins at 5 mins intervals; type: functional
Mus musculus [5] = test: Analgesic activity against formalin-induced neurogenic pain in albino mouse assessed as time spent on paw licking at 1500 umol/kg, sc administered 20 mins before formalin challenge assessed for 30 mins at 5 mins intervals; type: functional, organism-based
Mus musculus [6] = test: Increase in locomotor activity in albino mouse assessed as number of crossing at 1000 umol/kg; type: functional
Mus musculus [7] = test: Analgesic activity in albino mouse assessed as response latency at 1500 ug/ml, sc after 30 mins by hot plate method; type: functional, organism-based
Mus musculus [8] = test: Increase in locomotor activity in albino mouse assessed as number of crossing at 1500 umol/kg; type: functional
Mus musculus [9] = test: Analgesic activity in albino mouse assessed as number of falls from the rod at 1000 ug/ml, sc after 4 mins by rotarod test; type: functional
Mus musculus [10] = test: Analgesic activity in albino mouse assessed as response latency at 1000 ug/ml, sc after 30 mins by hot plate method; type: functional, organism-based
Mus musculus [11] = species on record: Mus musculus; test: Toxicity against in albino mouse after 72 hrs; type: organism-based; conditions: in vivo
Mus musculus [12] = test: Analgesic activity against formalin-induced inflammatory pain in albino mouse assessed as time spent on paw licking at 1500 umol/kg, sc administered 20 mins before formalin challenge assessed for 30 mins at 5 mins intervals; type: functional, organism-based
Mus musculus [13] = test: Analgesic activity in albino mouse assessed as inhibition of carrageenan-induced paw edema at 1000 ug/ml; type: functional; design: scale not given: the % may be the effect or the level left
Mus musculus [14] = test: Analgesic activity in albino mouse assessed as falling latency at 1000 ug/ml, sc after 30 mins by rotarod test; type: functional
Mus musculus [15] = test: Analgesic activity against formalin-induced inflammatory pain in albino mouse assessed as time spent on paw licking at 25 umol/kg, sc administered 20 mins before formalin challenge assessed for 30 mins at 5 mins intervals; type: functional, organism-based
Mus musculus [16] = test: Analgesic activity against formalin-induced inflammatory pain in albino mouse assessed as time spent on paw licking at 75 umol/kg, sc administered 20 mins before formalin challenge assessed for 30 mins at 5 mins intervals; type: functional, organism-based
Mus musculus [17] = test: Analgesic activity against formalin-induced inflammatory pain in albino mouse assessed as time spent on paw licking at 250 umol/kg, sc administered 20 mins before formalin challenge assessed for 30 mins at 5 mins intervals; type: functional, organism-based

SMILES: NC(=O)N1N=C(c2ccc(Br)cc2)CC1(O)C(F)(F)F (centres undefined)
- Activity (Mus musculus [1]): 47.3%
- Activity (Mus musculus [2]): 33.3%

SMILES: CC(C)(C)C1=NN(C(N)=O)C(O)(C(F)(F)F)C1 (centres undefined)
- Activity (Mus musculus [1]): 72.9%
- Activity (Mus musculus [2]): 59.1%

SMILES: CCCCC1=NN(C(N)=O)C(O)(C(F)(F)F)C1 (centres undefined)
- Activity (Mus musculus [3]): 46%
- Activity (Mus musculus [4]): -22.3%

SMILES: Cc1c(N(C)CS(=O)(=O)[O-])c(=O)n(-c2ccccc2)n1C.[Na+] [DIPYRONE SODIUM]
- Activity (Mus musculus [5]): Active
- Activity (Mus musculus [6]): 87.7
- Activity (Mus musculus [7]): Active

SMILES: NC(=O)c1ccccc1O [SALICYLAMIDE]
- Activity (Mus musculus [5]): inactive
- Activity (Mus musculus [8]): 102.1

SMILES: CC1C=NN(C(N)=O)C1(O)C(F)(F)F (centres undefined)
- Activity (Mus musculus [9]): 5.1
- Activity (Mus musculus [5]): Active
- Activity (Mus musculus [10]): inactive
- Activity (Mus musculus [1]): 97.2%
- Activity (Mus musculus [11]): Non-toxic
- Activity (Mus musculus [12]): Active
- Activity (Mus musculus [6]): 167.3
- Activity (Mus musculus [13]): 34.6%
- Activity (Mus musculus [2]): 74.6%
- Activity (Mus musculus [14]): 62.6 s

SMILES: NC(=O)N1N=C(c2ccccc2)CC1(O)C(F)(F)F (centres undefined)
- Activity (Mus musculus [1]): 8.2%
- Activity (Mus musculus [2]): 10%

SMILES: CCC1=NN(C(N)=O)C(O)(C(F)(F)F)C1 (centres undefined)
- Activity (Mus musculus [9]): 3.7
- Activity (Mus musculus [5]): Active
- Activity (Mus musculus [10]): inactive
- Activity (Mus musculus [1]): 98.2%
- Activity (Mus musculus [12]): Active
- Activity (Mus musculus [6]): 165.6
- Activity (Mus musculus [13]): 43.7%
- Activity (Mus musculus [2]): 87.9%
- Activity (Mus musculus [14]): 112.5 s

SMILES: CC(C)C1=NN(C(N)=O)C(O)(C(F)(F)F)C1 (centres undefined)
- Activity (Mus musculus [11]): Non-toxic
- Activity (Mus musculus [3]): 51.9%
- Activity (Mus musculus [4]): 67%
- Activity (Mus musculus [15]): Active

SMILES: CC1=NN(C(N)=O)C(O)(C(F)(F)F)C1 (centres undefined)
- Activity (Mus musculus [1]): 55.5%
- Activity (Mus musculus [2]): 23.3%

SMILES: NC(=O)N1N=CCC1(O)C(F)(F)F (centres undefined)
- Activity (Mus musculus [1]): 70.8%
- Activity (Mus musculus [2]): 32.8%

SMILES: CCCC1=NN(C(N)=O)C(O)(C(F)(F)F)C1 (centres undefined)
- Activity (Mus musculus [3]): 48.2%
- Activity (Mus musculus [4]): 70.1%
- Activity (Mus musculus [16]): Active
- Activity (Mus musculus [17]): inactive
